According to patent US8680146B2, “Organic compounds” (Novartis AG, priority 2008, dated 2014):

Experiment: Solubility study of FTY720 salts in various solvents
Type: physicochemical
Conditions: approx. values at 25° C.
Method: The solubilities of various salts were assessed and are given in the table below (approx. values at 25° C., g/100 ml %): […]

Compound | Solubility in 0.1N HCl [g/100 ml %] | Solubility in Acetone [g/100 ml %] | Solubility in Ethanol [g/100 ml %] | Solubility in Ethylacetate [g/100 ml %] | Solubility in Isopropanol [g/100 ml %] | Solubility in Octanol | Solubility in Water [g/100 ml %] | Solubility in pH 6.88 phosphate buffer [g/100 ml %]
CCCCCCCCc1ccc(CCC(N)(CO)CO)cc1 [Free Base, 2-amino-2-[2-(4-octylphenyl)ethyl]propane-1,3-diol] | >2 | 0.52 | 3.88 | 0.45 | 2.03 | 1-2 g/100 ml % | 0.018 | <0.001
CCCCCCCCc1ccc(CCC(N)(CO)CO)cc1.Cl [Hydrochloride, 2-amino-2-[2-(4-octylphenyl)ethyl]propane-1,3-diol hydrochloride salt] | >2 | 0.08 | >7.94 | 0.03 | 4.51 | 1-2 g/100 ml % | >10 | <0.001
